Here are results for two molecules from ChEMBL document CHEMBL1139983, “The anti-androgen effect of ganoderol B isolated from the fruiting body of Ganoderma lucidum” (Bioorg Med Chem, 2007).

Assay [1] in a line: Inhibition of steroid 5-alpha-reductase activity in Sprague-Dawley rat liver microsomes after 10 mins. Also on record: species or system Microsome.
Assay [2] is filed under the species Rattus norvegicus. The assay can be described thus: Inhibition of steroid 5-alpha-reductase activity in Sprague-Dawley rat liver microsomes at 113 uM after 10 mins. The settings on record: Microsome. In general terms: Liver microsomes are a subcellular fraction often used to study metabolism.
Assay [3] deals with T1, Androgen receptor (Homo sapiens) (UniProt P10275).
T1 sequence (whole entry): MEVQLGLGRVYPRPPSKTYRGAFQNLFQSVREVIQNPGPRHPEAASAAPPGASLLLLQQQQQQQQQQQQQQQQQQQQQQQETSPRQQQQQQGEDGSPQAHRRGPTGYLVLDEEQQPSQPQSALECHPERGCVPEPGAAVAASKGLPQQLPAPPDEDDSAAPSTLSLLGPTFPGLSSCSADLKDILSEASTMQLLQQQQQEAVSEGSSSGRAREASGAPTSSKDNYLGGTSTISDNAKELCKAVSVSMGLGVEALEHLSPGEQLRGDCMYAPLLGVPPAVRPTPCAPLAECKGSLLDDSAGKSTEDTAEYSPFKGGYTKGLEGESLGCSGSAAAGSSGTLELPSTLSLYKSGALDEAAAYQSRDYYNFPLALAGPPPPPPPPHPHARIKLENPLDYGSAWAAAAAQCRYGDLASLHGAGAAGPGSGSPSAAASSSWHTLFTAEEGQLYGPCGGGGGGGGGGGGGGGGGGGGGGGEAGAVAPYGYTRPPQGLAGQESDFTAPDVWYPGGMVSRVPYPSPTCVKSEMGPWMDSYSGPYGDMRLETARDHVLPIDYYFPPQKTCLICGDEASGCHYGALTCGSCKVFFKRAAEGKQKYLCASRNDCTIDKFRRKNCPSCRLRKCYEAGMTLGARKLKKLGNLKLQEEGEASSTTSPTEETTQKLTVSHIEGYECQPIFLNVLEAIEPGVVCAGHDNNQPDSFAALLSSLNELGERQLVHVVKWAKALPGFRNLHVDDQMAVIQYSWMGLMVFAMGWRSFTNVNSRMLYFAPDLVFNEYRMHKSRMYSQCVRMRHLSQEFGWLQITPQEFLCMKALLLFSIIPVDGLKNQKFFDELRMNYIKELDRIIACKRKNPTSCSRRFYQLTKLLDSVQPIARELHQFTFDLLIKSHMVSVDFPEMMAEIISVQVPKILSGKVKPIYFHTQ
Nature of the assay: Displacement of dihydrotestosterone from human recombinant AR ligand binding domain at 15 uM by fluorescence polarization method. In general terms: Fluorescence polarisation rises when a labelled molecule tumbles more slowly, as on binding a larger partner.

Assay [4] relates to Rattus norvegicus. Nature of the assay: Inhibition of testosterone induced ventral prostate growth in Sprague-Dawley rat at 0.1 mg/kg/day, po after 7 days. The settings on record: Prostate gland, 168 h. It is filed as functional.
The test system of assay [5] is Rattus norvegicus. Nature of the assay: Inhibition of testosterone induced ventral prostate growth in Sprague-Dawley rat at 0.001 mg/kg/day, po after 7 days. Also on record: scale not given: the % may be the effect or the level left. It is filed as functional, Prostate gland.
In assay [6] the test system is LNCaP. The assay can be described thus: Growth inhibition of human LNCaP cells after 3 days. It is filed as functional, cell-based.
The test system of assay [7] is LNCaP. Nature of the assay: Growth inhibition of human LNCaP cells in presence of dihydrotestosterone after 3 days. It is filed as functional, cell-based.
Assay [8] has as its system LNCaP. The assay can be described thus: Growth inhibition of human LNCaP cells in presence of testosterone after 3 days. In kind it is functional, cell-based.

Calls of active or inactive are those of the source. The calls are words filed in the database; no cut-off is given here.

Regarding `CC(C)(C)NC(=O)[C@H]1CC[C@H]2[C@@H]3CC[C@H]4NC(=O)C=C[C@]4(C)[C@H]3CC[C@]12C` [FINASTERIDE], half-maximal inhibition in assay [1] (IC50) was put at 0.73 µM.
As for `C/C(=C\CC[C@@H](C)[C@H]1CC[C@@]2(C)C3=CC[C@H]4C(C)(C)[C@@H](O)CC[C@]4(C)C3=CC[C@]12C)CO` [GANODEROL B], the inhibition (as a rule, the share of the control response that was lost under treatment) in the assay listed under Rattus norvegicus [2] amounted to 37%. Also, the Activity in assay [3] is 50%; with Rattus norvegicus [5] it was 31%; with LNCaP [7], “Dose-dependent effect”; with LNCaP [8] it was “Dose-dependent effect”. Further, the inhibition in vivo – broadly, the share of the control response that was lost under treatment – at 0.1 mg/kg/day with Rattus norvegicus [4] is 49%. In the assay with LNCaP [6], the result was inactive.
